According to patent US20100137449A1, “SUBSTITUTED 1,3-CYCLOPENTADIONE MULTI-TARGET PROTEIN KINASE MODULATORS OF CANCER, ANGIOGENESIS AND THE INFLAMMATORY PATHWAYS ASSOCIATED THEREWITH” (METAPROTEOMICS, LLC, priority 2007, published 2010):

Experiments:
Assay in all cases: KinaseProfiler Assay
CaMKIIβ(h) = CaMKIIβ(h) (Homo sapiens, UniProt Q13554)
CDK9/cyclin T1(h) = CDK9/cyclin T1(h) (Homo sapiens, UniProt P50750)
CHK2(I157T)(h) = CHK2(I157T)(h) (Homo sapiens, UniProt O96017, I157T)
Fer(h) = Fer(h) (Homo sapiens, UniProt P16591)
Sequence of Fer(h) (P16591 whole entry): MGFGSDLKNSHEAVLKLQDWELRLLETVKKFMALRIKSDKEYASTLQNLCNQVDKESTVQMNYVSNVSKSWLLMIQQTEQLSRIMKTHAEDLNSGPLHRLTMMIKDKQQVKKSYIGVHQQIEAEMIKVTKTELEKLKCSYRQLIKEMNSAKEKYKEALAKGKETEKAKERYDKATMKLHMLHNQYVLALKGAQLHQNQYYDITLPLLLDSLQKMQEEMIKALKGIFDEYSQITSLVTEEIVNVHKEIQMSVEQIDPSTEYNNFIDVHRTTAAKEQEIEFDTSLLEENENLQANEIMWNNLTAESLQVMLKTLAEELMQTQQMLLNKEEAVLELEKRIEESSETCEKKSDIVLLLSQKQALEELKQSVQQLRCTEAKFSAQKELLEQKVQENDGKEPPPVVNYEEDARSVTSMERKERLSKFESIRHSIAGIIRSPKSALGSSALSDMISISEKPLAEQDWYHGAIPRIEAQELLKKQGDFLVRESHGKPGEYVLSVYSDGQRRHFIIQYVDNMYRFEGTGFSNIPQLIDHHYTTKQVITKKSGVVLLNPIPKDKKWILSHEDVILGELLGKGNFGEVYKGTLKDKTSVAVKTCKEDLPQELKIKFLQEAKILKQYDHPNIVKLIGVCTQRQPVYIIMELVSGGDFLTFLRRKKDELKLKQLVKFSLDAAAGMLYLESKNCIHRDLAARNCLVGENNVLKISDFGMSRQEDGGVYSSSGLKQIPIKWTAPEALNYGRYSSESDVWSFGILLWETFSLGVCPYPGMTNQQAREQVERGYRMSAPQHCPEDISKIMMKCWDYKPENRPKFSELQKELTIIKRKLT

Flt3(D835Y)(h) = target: T1, Flt3(D835Y)(h) (Homo sapiens, UniProt P36888, D835Y)
T1 sequence (P36888 27-993 D835Y): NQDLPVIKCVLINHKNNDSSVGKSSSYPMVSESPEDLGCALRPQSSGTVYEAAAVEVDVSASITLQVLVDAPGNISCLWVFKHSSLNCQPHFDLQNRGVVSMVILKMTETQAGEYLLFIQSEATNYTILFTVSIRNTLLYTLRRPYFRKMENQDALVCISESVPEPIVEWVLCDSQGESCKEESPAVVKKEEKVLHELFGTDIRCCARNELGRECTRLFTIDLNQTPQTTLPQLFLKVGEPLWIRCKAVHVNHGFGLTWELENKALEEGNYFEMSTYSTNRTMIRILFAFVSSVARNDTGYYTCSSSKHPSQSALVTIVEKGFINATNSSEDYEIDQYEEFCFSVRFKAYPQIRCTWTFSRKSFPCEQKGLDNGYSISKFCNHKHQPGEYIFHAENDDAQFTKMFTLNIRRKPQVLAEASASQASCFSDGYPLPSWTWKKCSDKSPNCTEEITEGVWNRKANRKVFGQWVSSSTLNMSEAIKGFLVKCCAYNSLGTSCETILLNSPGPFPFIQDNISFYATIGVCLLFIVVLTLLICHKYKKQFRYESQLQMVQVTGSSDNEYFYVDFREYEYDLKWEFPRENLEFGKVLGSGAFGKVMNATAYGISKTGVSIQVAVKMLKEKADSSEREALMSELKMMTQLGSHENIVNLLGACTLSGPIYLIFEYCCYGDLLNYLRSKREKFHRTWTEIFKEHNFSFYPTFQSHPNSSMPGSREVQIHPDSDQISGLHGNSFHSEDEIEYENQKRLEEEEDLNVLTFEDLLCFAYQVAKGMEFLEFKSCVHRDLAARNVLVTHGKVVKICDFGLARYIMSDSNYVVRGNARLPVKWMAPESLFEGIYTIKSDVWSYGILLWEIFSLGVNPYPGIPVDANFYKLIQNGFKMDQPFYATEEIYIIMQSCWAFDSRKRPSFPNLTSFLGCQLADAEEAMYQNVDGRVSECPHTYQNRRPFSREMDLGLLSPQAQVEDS

Fyn(h) = Fyn(h) (Homo sapiens, UniProt P06241)
Lck(h) = Lck(h) (Homo sapiens, UniProt P06239)
MRCKα(h) = MRCKα(h) (Homo sapiens, UniProt Q5VT25)
Sequence of MRCKα(h) (Q5VT25 whole entry): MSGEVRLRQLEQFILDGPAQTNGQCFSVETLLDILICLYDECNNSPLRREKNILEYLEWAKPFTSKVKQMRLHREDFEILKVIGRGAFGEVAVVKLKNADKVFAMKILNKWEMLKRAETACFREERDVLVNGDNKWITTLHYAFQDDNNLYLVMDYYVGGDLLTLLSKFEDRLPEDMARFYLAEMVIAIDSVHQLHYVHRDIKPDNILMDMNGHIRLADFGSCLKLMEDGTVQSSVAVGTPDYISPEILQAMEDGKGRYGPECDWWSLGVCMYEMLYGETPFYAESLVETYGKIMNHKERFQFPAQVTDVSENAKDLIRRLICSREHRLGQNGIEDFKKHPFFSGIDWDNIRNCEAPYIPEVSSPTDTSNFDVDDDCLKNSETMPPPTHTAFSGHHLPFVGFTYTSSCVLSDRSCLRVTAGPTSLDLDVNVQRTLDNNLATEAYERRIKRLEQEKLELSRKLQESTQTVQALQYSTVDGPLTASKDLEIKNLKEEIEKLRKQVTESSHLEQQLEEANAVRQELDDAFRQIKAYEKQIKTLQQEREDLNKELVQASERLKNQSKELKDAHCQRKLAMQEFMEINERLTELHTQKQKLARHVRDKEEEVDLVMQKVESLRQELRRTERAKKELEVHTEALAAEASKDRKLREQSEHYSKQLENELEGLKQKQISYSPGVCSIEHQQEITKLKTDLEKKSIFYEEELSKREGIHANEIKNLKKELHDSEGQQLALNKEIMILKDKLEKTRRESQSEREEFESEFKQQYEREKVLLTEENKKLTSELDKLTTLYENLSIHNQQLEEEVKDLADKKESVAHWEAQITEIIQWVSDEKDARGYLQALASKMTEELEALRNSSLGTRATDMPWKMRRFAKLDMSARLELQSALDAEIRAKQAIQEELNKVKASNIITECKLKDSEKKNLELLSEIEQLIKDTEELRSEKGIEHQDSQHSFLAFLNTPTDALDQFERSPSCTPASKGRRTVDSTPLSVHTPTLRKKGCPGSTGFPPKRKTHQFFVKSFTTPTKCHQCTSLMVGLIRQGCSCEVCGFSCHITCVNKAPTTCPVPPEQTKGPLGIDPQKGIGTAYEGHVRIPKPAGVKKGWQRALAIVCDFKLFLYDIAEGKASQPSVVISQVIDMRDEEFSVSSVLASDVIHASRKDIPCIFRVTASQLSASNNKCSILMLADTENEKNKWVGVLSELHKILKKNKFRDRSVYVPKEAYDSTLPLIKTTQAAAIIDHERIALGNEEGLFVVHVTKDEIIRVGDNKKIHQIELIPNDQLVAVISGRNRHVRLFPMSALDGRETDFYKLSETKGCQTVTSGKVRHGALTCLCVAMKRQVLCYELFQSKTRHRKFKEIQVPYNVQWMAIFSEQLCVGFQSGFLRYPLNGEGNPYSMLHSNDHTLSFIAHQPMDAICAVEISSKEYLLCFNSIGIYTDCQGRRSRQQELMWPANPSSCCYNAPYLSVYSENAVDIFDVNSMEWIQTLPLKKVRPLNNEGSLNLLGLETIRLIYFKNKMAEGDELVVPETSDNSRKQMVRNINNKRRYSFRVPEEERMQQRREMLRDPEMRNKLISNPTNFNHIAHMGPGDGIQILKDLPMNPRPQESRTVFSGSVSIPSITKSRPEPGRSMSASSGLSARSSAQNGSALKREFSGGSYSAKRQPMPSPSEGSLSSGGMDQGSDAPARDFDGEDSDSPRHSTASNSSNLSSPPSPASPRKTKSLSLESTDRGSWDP

SIK(h) = SIK(h) (Homo sapiens, UniProt P57059)
Sequence of SIK(h) (P57059 whole entry): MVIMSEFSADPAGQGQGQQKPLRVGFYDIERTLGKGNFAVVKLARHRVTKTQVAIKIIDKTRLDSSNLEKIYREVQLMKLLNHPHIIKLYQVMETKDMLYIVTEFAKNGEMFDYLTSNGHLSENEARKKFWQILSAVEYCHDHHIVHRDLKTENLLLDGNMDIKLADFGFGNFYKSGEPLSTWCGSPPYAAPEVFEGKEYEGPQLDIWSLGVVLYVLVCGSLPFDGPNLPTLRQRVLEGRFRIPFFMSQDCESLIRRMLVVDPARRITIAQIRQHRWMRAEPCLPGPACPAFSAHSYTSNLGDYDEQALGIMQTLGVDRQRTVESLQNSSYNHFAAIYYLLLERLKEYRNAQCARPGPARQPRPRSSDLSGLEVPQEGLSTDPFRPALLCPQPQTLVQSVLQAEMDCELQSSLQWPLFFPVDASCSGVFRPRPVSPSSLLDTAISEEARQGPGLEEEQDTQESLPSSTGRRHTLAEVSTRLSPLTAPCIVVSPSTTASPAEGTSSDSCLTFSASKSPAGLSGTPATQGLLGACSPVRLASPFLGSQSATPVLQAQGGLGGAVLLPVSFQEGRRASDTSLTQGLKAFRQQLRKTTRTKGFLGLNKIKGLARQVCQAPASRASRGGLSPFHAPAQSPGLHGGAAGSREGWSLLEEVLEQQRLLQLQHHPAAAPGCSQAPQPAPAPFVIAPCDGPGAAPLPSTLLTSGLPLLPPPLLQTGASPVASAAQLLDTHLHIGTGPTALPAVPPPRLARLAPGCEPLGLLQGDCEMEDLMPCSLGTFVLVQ

Syk(h) = Syk(h) (Homo sapiens, UniProt P43405)
Txk(h) = target: T2, Txk(h) (Homo sapiens, UniProt P42681)
T2 sequence (P42681 1-527): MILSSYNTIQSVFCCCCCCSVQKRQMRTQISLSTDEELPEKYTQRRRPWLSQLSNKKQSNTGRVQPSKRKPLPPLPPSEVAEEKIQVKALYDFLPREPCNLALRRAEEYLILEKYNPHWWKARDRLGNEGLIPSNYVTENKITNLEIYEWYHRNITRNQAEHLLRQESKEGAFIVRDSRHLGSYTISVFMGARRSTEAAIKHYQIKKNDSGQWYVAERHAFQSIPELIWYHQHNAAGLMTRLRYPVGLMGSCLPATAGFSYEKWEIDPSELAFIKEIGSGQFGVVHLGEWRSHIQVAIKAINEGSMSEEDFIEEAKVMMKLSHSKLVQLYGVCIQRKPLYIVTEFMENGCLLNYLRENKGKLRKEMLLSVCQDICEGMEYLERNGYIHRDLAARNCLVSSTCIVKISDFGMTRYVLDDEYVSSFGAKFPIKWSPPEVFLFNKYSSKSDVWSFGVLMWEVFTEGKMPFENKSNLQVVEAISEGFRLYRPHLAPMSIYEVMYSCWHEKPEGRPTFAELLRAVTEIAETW

Sequence of CHK2(I157T)(h) (O96017 whole entry I157T): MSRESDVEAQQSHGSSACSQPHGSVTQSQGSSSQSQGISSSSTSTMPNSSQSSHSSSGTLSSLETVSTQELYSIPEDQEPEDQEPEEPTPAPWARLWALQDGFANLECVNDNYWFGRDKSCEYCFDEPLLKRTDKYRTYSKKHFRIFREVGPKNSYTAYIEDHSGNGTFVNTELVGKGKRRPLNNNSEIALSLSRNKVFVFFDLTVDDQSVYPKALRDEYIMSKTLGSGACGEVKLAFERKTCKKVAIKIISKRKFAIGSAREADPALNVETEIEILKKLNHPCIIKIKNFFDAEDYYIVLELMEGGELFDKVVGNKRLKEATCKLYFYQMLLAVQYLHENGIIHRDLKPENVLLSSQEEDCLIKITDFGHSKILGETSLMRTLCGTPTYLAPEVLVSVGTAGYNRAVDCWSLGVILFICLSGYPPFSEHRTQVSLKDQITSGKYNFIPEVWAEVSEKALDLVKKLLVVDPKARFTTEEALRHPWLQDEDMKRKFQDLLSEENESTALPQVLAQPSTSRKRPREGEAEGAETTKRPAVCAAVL
Sequence of CDK9/cyclin T1(h) (P50750 whole entry): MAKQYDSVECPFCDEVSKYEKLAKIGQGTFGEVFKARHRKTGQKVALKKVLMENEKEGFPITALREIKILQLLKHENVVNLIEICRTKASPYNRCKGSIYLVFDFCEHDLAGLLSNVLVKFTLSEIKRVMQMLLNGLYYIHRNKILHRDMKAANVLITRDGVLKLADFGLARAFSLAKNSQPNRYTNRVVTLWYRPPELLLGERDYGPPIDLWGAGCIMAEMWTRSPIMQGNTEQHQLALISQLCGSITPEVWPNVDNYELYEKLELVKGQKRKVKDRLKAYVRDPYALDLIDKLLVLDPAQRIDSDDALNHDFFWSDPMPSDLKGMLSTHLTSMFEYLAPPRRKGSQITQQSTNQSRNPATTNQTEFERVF
Sequence of CDK9/cyclin T1(h) (O60563 whole entry partner): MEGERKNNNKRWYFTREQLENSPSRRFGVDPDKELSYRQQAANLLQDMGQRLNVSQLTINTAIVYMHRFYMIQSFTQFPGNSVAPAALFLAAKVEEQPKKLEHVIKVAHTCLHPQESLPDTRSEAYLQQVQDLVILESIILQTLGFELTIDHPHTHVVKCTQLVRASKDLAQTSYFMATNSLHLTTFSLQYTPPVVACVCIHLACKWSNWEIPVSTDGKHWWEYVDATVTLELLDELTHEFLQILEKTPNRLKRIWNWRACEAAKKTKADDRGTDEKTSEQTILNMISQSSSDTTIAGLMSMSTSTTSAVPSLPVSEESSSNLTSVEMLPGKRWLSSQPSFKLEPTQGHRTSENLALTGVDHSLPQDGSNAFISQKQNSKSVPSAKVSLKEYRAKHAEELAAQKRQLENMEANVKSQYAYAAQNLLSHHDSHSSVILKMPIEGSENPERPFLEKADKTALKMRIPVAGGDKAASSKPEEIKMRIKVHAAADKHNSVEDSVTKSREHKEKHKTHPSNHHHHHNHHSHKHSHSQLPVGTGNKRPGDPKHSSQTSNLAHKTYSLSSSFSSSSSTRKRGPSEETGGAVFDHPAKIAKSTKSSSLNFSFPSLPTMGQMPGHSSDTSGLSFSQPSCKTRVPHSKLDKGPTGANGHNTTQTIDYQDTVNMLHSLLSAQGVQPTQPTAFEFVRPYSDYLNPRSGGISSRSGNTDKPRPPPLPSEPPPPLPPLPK

Compound: CC(C)CCC(=O)[C@]1(O)C(O)=C(C(=O)C(C)C)C(=O)[C@H]1CCC(C)C [TH2, tetrahydroiso-cohumulone]
- kinase inhibition (CaMKIIβ(h); 1 μg/ml): 103% of control
- kinase inhibition (CaMKIIβ(h); 5 μg/ml): 106% of control
- kinase inhibition (CaMKIIβ(h); 25 μg/ml): 95% of control
- kinase inhibition (CaMKIIβ(h); 50 μg/ml): 83% of control
- kinase inhibition (CaMKIIβ(h); 100 μg/ml): 66% of control
- kinase inhibition (CDK9/cyclin T1(h); 1 μg/ml): 99% of control
- kinase inhibition (CDK9/cyclin T1(h); 5 μg/ml): 102% of control
- kinase inhibition (CDK9/cyclin T1(h); 25 μg/ml): 78% of control
- kinase inhibition (CDK9/cyclin T1(h); 50 μg/ml): 63% of control
- kinase inhibition (CDK9/cyclin T1(h); 100 μg/ml): 49% of control
- kinase inhibition (CHK2(I157T)(h); 1 μg/ml): 108% of control
- kinase inhibition (CHK2(I157T)(h); 5 μg/ml): 104% of control
- kinase inhibition (CHK2(I157T)(h); 25 μg/ml): 94% of control
- kinase inhibition (CHK2(I157T)(h); 50 μg/ml): 83% of control
- kinase inhibition (CHK2(I157T)(h); 100 μg/ml): 74% of control
- kinase inhibition (Fer(h); 1 μg/ml): 110% of control
- kinase inhibition (Fer(h); 5 μg/ml): 102% of control
- kinase inhibition (Fer(h); 25 μg/ml): 104% of control
- kinase inhibition (Fer(h); 50 μg/ml): 91% of control
- kinase inhibition (Fer(h); 100 μg/ml): 88% of control
- kinase inhibition (Flt3(D835Y)(h); 1 μg/ml): 108% of control
- kinase inhibition (Flt3(D835Y)(h); 5 μg/ml): 116% of control
- kinase inhibition (Flt3(D835Y)(h); 25 μg/ml): 102% of control
- kinase inhibition (Flt3(D835Y)(h); 50 μg/ml): 105% of control
- kinase inhibition (Flt3(D835Y)(h); 100 μg/ml): 98% of control
- kinase inhibition (Fyn(h); 1 μg/ml): 103% of control
- kinase inhibition (Fyn(h); 5 μg/ml): 105% of control
- kinase inhibition (Fyn(h); 25 μg/ml): 103% of control
- kinase inhibition (Fyn(h); 50 μg/ml): 105% of control
- kinase inhibition (Fyn(h); 100 μg/ml): 89% of control
- kinase inhibition (Lck(h); 1 μg/ml): 106% of control
- kinase inhibition (Lck(h); 5 μg/ml): 111% of control
- kinase inhibition (Lck(h); 25 μg/ml): 86% of control
- kinase inhibition (Lck(h); 50 μg/ml): 83% of control
- kinase inhibition (Lck(h); 100 μg/ml): 78% of control
- kinase inhibition (MRCKα(h); 1 μg/ml): 100% of control
- kinase inhibition (MRCKα(h); 5 μg/ml): 94% of control
- kinase inhibition (MRCKα(h); 25 μg/ml): 112% of control
- kinase inhibition (MRCKα(h); 50 μg/ml): 102% of control
- kinase inhibition (MRCKα(h); 100 μg/ml): 97% of control
- kinase inhibition (SIK(h); 1 μg/ml): 102% of control
- kinase inhibition (SIK(h); 5 μg/ml): 99% of control
- kinase inhibition (SIK(h); 25 μg/ml): 104% of control
- kinase inhibition (SIK(h); 50 μg/ml): 89% of control
- kinase inhibition (SIK(h); 100 μg/ml): 62% of control
- kinase inhibition (Syk(h); 1 μg/ml): 135% of control
- kinase inhibition (Syk(h); 5 μg/ml): 120% of control
- kinase inhibition (Syk(h); 25 μg/ml): 63% of control
- kinase inhibition (Syk(h); 50 μg/ml): 37% of control
- kinase inhibition (Syk(h); 100 μg/ml): 47% of control
- kinase inhibition (Txk(h); 1 μg/ml): 114% of control
- kinase inhibition (Txk(h); 5 μg/ml): 121% of control
- kinase inhibition (Txk(h); 25 μg/ml): 121% of control
- kinase inhibition (Txk(h); 50 μg/ml): 110% of control
- kinase inhibition (Txk(h); 100 μg/ml): 107% of control
